# Laboratory results taken from patent publication US20160368895A1, “PULMONARY HYPERTENSION TREATING AGENT” (THE UNIVERSITY OF TOKYO, priority 2013, published 2016).
# Experiments:
# [1] = biological target: T1, human PGI2 receptors (hIP) (Homo sapiens, UniProt P43119); test: Method B: positive allosteric modulator activity, cAMP in CHO/hIP cells with 1 nM epoprostenol; type: cell-based; details: cAMP relative to 1 nM epoprostenol alone
# T1 construct: expressed in transfected cells; host or cells: CHO-K1
# Procedure: The positive allosteric modulator activity of a test compound was measured as a change in the amount of intracellular cyclic AMP (cAMP) in the presence of 1 nM of the IP agonist epoprostenol (manufactured by GlaxoSmithKline), using CHO-K1 cells (CHO/hIP cells) in which human PGI2 receptors (hIP) are stably expressed.
# An amount of 5 μL of a mixture (diluted in F-12 culture medium (manufactured by GIBCO) including 0.1% BSA) of epoprostenol dissolved in DMSO and a test compound dissolved in DMSO was dispensed in advance into a 384-well black microplate, and 5 μL of CHO/hIP cells suspended at a concentration of 1.4×10^6 cells/mL in F-12 culture medium including 0.1% BSA were added to the microplate. After 40 minutes of incubation at room temperature, the amount of cAMP was measured using a cAMP assay kit (cAMP HiRange, manufactured by Cisbio Bioassays). Specifically, 5 μL of a cAMP-d2 solution (including a cell lysate) from the kit were added and the reaction was stopped, then 5 μL of a fluorescence-labeled cAMP antibody solution from the kit were added and incubation was performed for 1 hour at room temperature, after which fluorescence was measured using a PHERAstar plate reader (manufactured by BMG) in HTRF (registered trademark) mode. The amount of cAMP in each well was calculated from a cAMP calibration curve obtained using a standard sample, and the activity of each test compound is noted below as a ratio T/C (%) based on the amount of cAMP for 1 nM of epoprostenol alone.
# [2] = biological target: T1, human PGI2 receptors (hIP); test: Method C: effect on epoprostenol-cAMP production curve in CHO/hIP cells (left shift value); type: cell-based
# Procedure: The effect of a test compound on the cAMP production curve with respect to the IP agonist epoprostenol (manufactured by GlaxoSmithKline) was investigated using CHO-K1 cells (CHO/hIP cells) in which human PGI2 receptors (hIP) are stably expressed.
# An amount of 5 μL of a mixture (diluted in F-12 culture medium (manufactured by GIBCO) including 0.1% BSA) of epoprostenol dissolved in DMSO and a test compound dissolved in DMSO was dispensed in advance into a 384-well black microplate, and 5 μL of CHO/hIP cells suspended at a concentration of 1.4×10^6 cells/mL in F-12 culture medium including 0.1% BSA were added to the microplate. After 40 minutes of incubation at room temperature, the amount of cAMP was measured using a cAMP assay kit (cAMP HiRange, manufactured by Cisbio Bioassays). Specifically, 5 μL of a cAMP-d2 solution (including a cell lysate) from the kit were added and the reaction was stopped, then 5 μL of a fluorescence-labeled cAMP antibody solution from the kit were added and incubation was performed for 1 hour at room temperature, after which fluorescence was measured using a PHERAstar plate reader (manufactured by BMG) in HTRF (registered trademark) mode. The amount of cAMP in each well was calculated from a cAMP calibration curve obtained using a standard sample, and an epoprostenol-cAMP production curve for the presence of various concentrations of the test compound was created.
# [3] = Table 4, concentration of test compound that halves the EC50 of epoprostenol
# [4] = Table 5, concentration of test compound that halves the EC50 of epoprostenol
# T1 sequence (P43119 whole entry): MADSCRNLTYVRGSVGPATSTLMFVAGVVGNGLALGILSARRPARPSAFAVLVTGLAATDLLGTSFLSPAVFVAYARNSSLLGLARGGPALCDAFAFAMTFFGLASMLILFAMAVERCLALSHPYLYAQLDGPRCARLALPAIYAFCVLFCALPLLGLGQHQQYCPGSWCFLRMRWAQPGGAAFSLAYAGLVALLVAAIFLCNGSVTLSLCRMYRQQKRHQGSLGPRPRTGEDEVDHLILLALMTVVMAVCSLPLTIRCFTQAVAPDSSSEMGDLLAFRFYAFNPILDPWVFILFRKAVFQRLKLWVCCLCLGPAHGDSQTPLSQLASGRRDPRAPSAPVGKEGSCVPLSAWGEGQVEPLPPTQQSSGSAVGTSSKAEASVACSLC
T/C ([1]; test concentration 10 uM),"left shift value [2, 3]",T/C ([1]; test concentration 5 uM),"left shift value [2, 4]",Structure (SMILES)
151.7%,24.9 µM,,,"CC(C)(C)n1nnnc1C(c1ccccc1OCc1ccccc1)N1CCc2ccccc2C1 (stereo not shown) [Example 1, 2-((2-(benzyloxy)phenyl)(1-tert-butyl-1H-tetrazol-5-yl)methyl)-1,2,3,4-tetrahydroisoquinoline]"
152.5%,15.5 µM,,,CC(C)(C)n1nnnc1C(c1ccccc1Br)N1CCc2ccccc2C1 (stereo not shown) [Example 2]
,71.4 µM,100.6%,,Cc1ccc(C(c2nnnn2C(C)(C)C)N2CCc3ccccc3C2)cc1 (stereo not shown) [Example 3]
,35.7 µM,100.1%,,CC(C)(C)n1nnnc1C(c1ccc(Br)cc1)N1CCc2ccccc2C1 (stereo not shown) [Example 4]
156.4%,10.9 µM,,,CC(C)(C)n1nnnc1C(c1ccc(O)cc1)N1CCc2ccccc2C1 (stereo not shown) [Example 5]
93.7%,,,,CC(C)(C)n1nncc1C(c1ccc(C(F)(F)F)cc1)N1CCc2ccccc2C1 (stereo not shown) [Example 6]
127.6%,24.1 µM,,,CC(C)(C)n1nnnc1C1c2ccc(F)cc2SC2Cc3ccccc3CN21 (stereo not shown) [Example 7]
184.2%,7.2 µM,,,COc1ccc(C(c2nnnn2C(C)(C)C)N2CCc3ccccc3C2)c(F)c1 (stereo not shown) [Example 8]
153.2%,13.4 µM,,,Cc1ccc(C(c2nnnn2C(C)(C)C)N2CCc3ccccc3C2)cc1 (stereo not shown) [Example 9]
117.0%,110.9 µM,,,CC(C)(C)n1nnnc1C(c1ccc(Cl)cc1)N1CCc2ccccc2C1 (stereo not shown) [Example 10]
95%,,,,Cc1ccccc1C(c1nnnn1C(C)(C)C)N1CCc2ccccc2C1 (stereo not shown) [Example 11]
155.2%,10.4 µM,,,COc1ccc(C(c2nnnn2C(C)(C)C)N2CCc3ccccc3C2)c(OC)c1 (stereo not shown) [Example 12]
218.3%,3.1 µM,,,CSc1ccccc1C(c1nnnn1C(C)(C)C)N1CCc2ccccc2C1 (stereo not shown) [Example 13]
132.1%,17.7 µM,,,COc1ncccc1C(c1nnnn1C(C)(C)C)N1CCc2ccccc2C1 (stereo not shown) [Example 14]
122.4%,32.4 µM,,,COc1cccc(C(c2nnnn2C(C)(C)C)N2CCc3ccccc3C2)c1 (stereo not shown) [Example 15]
104.6%,232.2 µM,,,CC(C)(C)n1nnnc1C(c1ccccc1F)N1CCc2ccc(Cl)cc2C1 (stereo not shown) [Example 16]
,,87%,,CC(C)(C)n1nnnc1C(c1ccccc1Br)N1CCc2ccc(Cl)cc2C1 (stereo not shown) [Example 17]
94.1%,,,,CC(C)(C)n1nnnc1C(c1ccccc1N=O)N1CCc2ccc(Cl)cc2C1 (stereo not shown) [Example 18]
,,90%,,Cc1ccccc1C(c1nnnn1C(C)(C)C)N1CCc2ccc(Cl)cc2C1 (stereo not shown) [Example 19]
,11.1 µM,126.3%,,COc1ccccc1C(c1nnnn1C1C2CC3CC(C2)CC1C3)N1CCc2ccccc2C1 (stereo not shown) [Example 20]
229.7%,2.0 µM,,,COc1ccccc1C(c1nnnn1C1(C)CCCCC1)N1CCc2ccccc2C1 (stereo not shown) [Example 21]
149.6%,8.3 µM,,,COc1ccccc1C(c1nnnn1C1(C)CCCC1)N1CCc2ccccc2C1 (stereo not shown) [Example 22]

T/C ([1]; test concentration 10 uM),"left shift value [2, 3]",T/C ([1]; test concentration 5 uM),"left shift value [2, 4]",Structure (SMILES)
106.4%,119.6 µM,,,COc1cc2ccccc2cc1C(c1nnnn1C(C)(C)C)N1CCc2ccccc2C1 (stereo not shown) [Example 23]
89.3%,,,,CC(C)(C)n1nnnc1C(c1cc2ccccc2[nH]1)N1CCc2ccccc2C1 (stereo not shown) [Example 40]
,,116.3%,,CC1(n2nnnc2C(c2ccccc2)N2CCc3ccccc3C2)CCCCC1 (stereo not shown) [Example 41]
72.3%,,,,COc1ccccc1C(C)(c1nnnn1C(C)(C)C)N1CCc2ccccc2C1 (stereo not shown) [Example 48]
104.7%,,,,CC(C)(C)n1nnnc1C(c1cc2ccccc2s1)N1CCc2ccccc2C1 (stereo not shown) [Example 49]
105.0%,,,,CC(C)(C)n1nnnc1C(c1cc2ccccc2o1)N1CCc2ccccc2C1 (stereo not shown) [Example 50]
,,,34.9 µM,"COc1ccc(C(c2nnnn2C(C)(C)C)N2CCc3sccc3C2)cc1 (stereo not shown) [Example 63, 5-((1-(tert-butyl)-1H-tetrazol-5-yl)(4-methoxyphenyl)methyl)-4,5,6,7-tetrahydrothieno[3,2-c]pyridine]"
,,,66.2 µM,"CC(C)(C)n1nnnc1C(c1ccccc1Br)N1CCc2sccc2C1 (stereo not shown) [Example 65, 5-((2-bromophenyl)(1-(tert-butyl)-1H-tetrazol-5-yl)methyl)-4,5,6,7-tetrahydrothieno[3,2-c]pyridine]"
,,,84.5 µM,"CC(C)(C)n1nnnc1C(c1ccc[nH]1)N1CCc2sccc2C1 (stereo not shown) [Example 66, 5-((1-(tert-butyl)-1H-tetrazol-5-yl)(1H-pyrrol-2-yl)methyl)-4,5,6,7-tetrahydrothieno[3,2-c]pyridine]"
,,,15.5 µM,"CC(C)(C)n1nnnc1C(c1ccsc1)N1CCc2sccc2C1 (stereo not shown) [Example 68, 5-((1-(tert-butyl)-1H-tetrazol-5-yl)(thiophen-3-yl)methyl)-4,5,6,7-tetrahydrothieno[3,2-c]pyridine]"
,,,20.6 µM,"CC(C)(C)n1nnnc1C(c1ccccc1F)N1CCc2sccc2C1 (stereo not shown) [Example 69, 5-((1-(tert-butyl)-1H-tetrazol-5-yl)(2-fluorophenyl)methyl)-4,5,6,7-tetrahydrothieno[3,2-c]pyridine]"
,,,14.8 µM,"CSc1ccccc1C(c1nnnn1C(C)(C)C)N1CCc2sccc2C1 (stereo not shown) [Example 70, 5-((1-(tert-butyl)-1H-tetrazol-5-yl)(2-(methylthio)phenyl)methyl)-4,5,6,7-tetrahydrothieno[3,2-c]pyridine]"
,,,2.3 µM,"CC1(n2nnnc2C(c2ccccc2O)N2CCc3ccccc3C2)CCCCC1 (stereo not shown) [Example 71, 2-((3,4-dihydroisoquinolin-2(1H)-yl)-(1-(1-methylcyclohexyl)-1H-tetrazol-5-yl)methyl)phenol]"
,,,3.2 µM,"COc1ccsc1C(c1nnnn1C(C)(C)C)N1CCc2sccc2C1 (stereo not shown) [Example 72, 5-((1-(tert-butyl)-1H-tetrazol-5-yl)(3-methoxythiophen-2-yl)methyl)-4,5,6,7-tetrahydrothieno[3,2-c]pyridine]"
,,,44.6 µM,"CC(C)(C)n1nnnc1C(c1nccs1)N1CCc2ccccc2C1 (stereo not shown) [Example 73, 2-((1-(tert-butyl)-1H-tetrazol-5-yl)(3,4-dihydroisoquinolin-2(1H)-yl)methyl)thiazole]"
,,,8.6 µM,"CC1(n2nnnc2C(c2cccs2)N2CCc3sccc3C2)CCCCC1 (stereo not shown) [Example 74, 5-((1-(1-methylcyclohexyl)-1H-tetrazol-5-yl)(thiophen-2-yl)methyl)-4,5,6,7-tetrahydrothieno[3,2-c]pyridine]"
,,,2.1 µM,"COc1ccsc1C(c1nnnn1C1(C)CCCCC1)N1CCc2sccc2C1 (stereo not shown) [Example 75, 5-((3-methoxythiophen-2-yl)(1-(1-methylcyclohexyl)-1H-tetrazol-5-yl)methyl)-4,5,6,7-tetrahydrothieno[3,2-c]pyridine]"
,,,7.2 µM,"COc1ccccc1C(c1nnnn1C1(C)CCCCC1)N1CCc2sccc2C1 (stereo not shown) [Example 76, 5-((2-methoxyphenyl)(1-(1-methylcyclohexyl)-1H-tetrazol-5-yl)methyl)-4,5,6,7-tetrahydrothieno[3,2-c]pyridine]"
,,,26.5 µM,"COc1c(F)cccc1C(c1nnnn1C(C)(C)C)N1CCc2ccccc2C1 (stereo not shown) [Example 80, 2-((1-(tert-butyl)-1H-tetrazol-5-yl)(3-fluoro-2-methoxyphenyl)methyl)-1,2,3,4-tetrahydroisoquinoline]"
,,,6.2 µM,"COc1ccccc1C(c1nnnn1C(C)(C)C)N1CCC2CCCCC2C1 (stereo not shown) [Example 82, 2-((1-(tert-butyl)-1H-tetrazol-5-yl)(2-methoxyphenyl)methyl)deca-hydroisoquinoline]"
,,,25.0 µM,CC1(n2nnnc2C(c2cccc(F)c2O)N2CCc3ccccc3C2)CCCCC1 (stereo not shown) [Example 83]
